# Measured values taken from patent US12077503B2, “Substituted cyclic amides and their use as herbicides” (FMC CORPORATION, priority 2015, dated 2024).
# Tests used:
# Format in all cases: in vivo
# [1] = system: Monochoria (Monochoria vaginalis); experiment: Test F flooded paddy test; design: key: 0 = no effect, 100 = complete control; details: Flood
# Excerpt: (§1) Plant species in the flooded paddy test consisted of one stand of 9 or 10 water seeded rice seedlings (Rice, W. S. Jap, Oryza sativa cv. ‘Japonica—M202’ or Rice, W. S. Ind, ‘Indica’), and two stands of 3 or 4 transplanted rice seedlings (Oryza sativa cv. ‘Japonica—M202’), Monochoria (Monochoria vaginalis), sedge, umbrella (small-flower umbrella sedge, Cyperus difformis), hardstem bulrush (Scirpus juncoides), redstem (purple redstem, Ammannia coccinea), rice flatsedge (Cyperus iria), bearded sprangletop (Leptochloa fascicularis), barnyardgrass (Echinochloa crus-galli), waterplantain (common waterplantain, Alisma plantago-aquatica), and late watergrass (Echinochloa oryzicola) grown to the 2 to 2.5 leaf stage for testing. Potted plants were grown in a greenhouse with day/night temperature settings of 30/27° C., and supplemental balanced lighting was provided to maintain a 16-hour photoperiod. At time of treatment, test pots were flooded to 3 cm above the soil surface, treated by application of test compounds directly to the paddy water, and then maintained at that water depth for the duration of the test. Effects of treatments on rice and weeds were visually evaluated by comparison to untreated controls after 21 d. Plant response ratings, summarized in Table F, are based on a scale of 0 to 100 where 0 is no effect and 100 is complete control. A dash (-) response means no test result.
# [2] = system: barnyardgrass (Echinochloa crus-galli); experiment: Test F flooded paddy test; design: key: 0 = no effect, 100 = complete control; details: Flood
# Excerpt: as §1
# [3] = system: bearded sprangletop (Leptochloa fascicularis); experiment: Test F flooded paddy test; design: key: 0 = no effect, 100 = complete control; details: Flood
# Excerpt: as §1
# [4] = system: late watergrass (Echinochloa oryzicola); experiment: Test F flooded paddy test; design: key: 0 = no effect, 100 = complete control; details: Flood
# Excerpt: as §1
# [5] = system: rice flatsedge (Cyperus iria); experiment: Test F flooded paddy test; design: key: 0 = no effect, 100 = complete control; details: Flood
# Excerpt: as §1
# [6] = system: sedge, umbrella (small-flower umbrella sedge, Cyperus difformis); experiment: Test F flooded paddy test; design: key: 0 = no effect, 100 = complete control; details: Flood
# Excerpt: as §1
# [7] = system: transplanted rice seedlings (Oryza sativa cv. ‘Japonica—M202’); experiment: Test F flooded paddy test; design: key: 0 = no effect, 100 = complete control; details: Flood
# Excerpt: as §1
# [8] = system: water seeded rice seedlings (Rice, W. S. Jap, Oryza sativa cv. ‘Japonica—M202’); experiment: Test F flooded paddy test; design: key: 0 = no effect, 100 = complete control; details: Flood
# Excerpt: as §1
# [9] = system: redstem (purple redstem, Ammannia coccinea); experiment: Test F flooded paddy test; details: Flood
# Excerpt: as §1
# [10] = system: waterplantain (common waterplantain, Alisma plantago-aquatica); experiment: Test F flooded paddy test; details: Flood
# Excerpt: as §1
# [11] = system: barnyardgrass (Echinochloa crus-galli); experiment: Test C flooded paddy test; details: Flood, 0 is no effect, 100 is complete control
# In short: (§2)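 Test compounds were dosed straight into the flood water of pots holding 2-leaf-stage plants, with water kept 3 cm above the soil. Greenhouse plants were scored visually against controls after 13 to 15 d, from 0 (no effect) to 100 (complete control).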
# [12] = system: ducksalad (Heteranthera limosa); experiment: Test C flooded paddy test; details: Flood, 0 is no effect, 100 is complete control
# In short: as §2
# [13] = system: sedge, umbrella (small-flower umbrella sedge, Cyperus difformis); experiment: Test C flooded paddy test; details: Flood, 0 is no effect, 100 is complete control
# In short: as §2
# [14] = system: barnyardgrass (Echinochloa crus-galli); experiment: Test G Post-Emergence Protocol; details: Echinochloa crus-galli, post-emergence, 312 h
# Protocol: Seeds of corn (Zea mays), giant foxtail (Setaria faberi), barnyardgrass (Echinochloa crus-galli), ivy-leaved morning glory (Ipomoea hederacea), redroot pigweed (Amaranthus retroflexus) and velvetleaf (Abutilon theophrasti) were sown in standard soil in pots. After cultivation for 8 days under controlled conditions in a glasshouse (at 24/16° C., day/night; 14 hours light; 65% humidity), the plants were sprayed with an aqueous spray solution derived from the formulation of the technical active ingredient in acetone/water (50:50) solution containing 0.5% Tween 20 (polyoxyethylene sorbitan monolaurate, CAS RN 9005-64-5) to give a final dose of 15.625, 62.5 or 250 g/ha of test compound.
# The test plants were then grown on under controlled conditions in a glasshouse (at 24/16° C., day/night; 14 hours light; 65% humidity) and watered twice daily. After 13 days the test was evaluated (100=total damage to plant; 0=no damage to plant). A dash (-) means no test result.
smiles,measurement,setting,value
CN1CC(c2cccc(OC(F)F)c2)C(C(=O)Nc2ccc(F)cc2F)C1=O (stereo not shown) [Compound 617],Plant response rating: Monochoria,[1]; 32 g ai/ha,0
same,Plant response rating: Monochoria,[1]; 64 g ai/ha,40
same,Plant response rating: Monochoria,[1]; 125 g ai/ha,70
same,Plant response rating: Monochoria,[1]; 250 g ai/ha,100
same,Plant response rating: Barnyardgrass,[2]; 32 g ai/ha,60
same,Plant response rating: Barnyardgrass,[2]; 64 g ai/ha,85
same,Plant response rating: Barnyardgrass,[2]; 125 g ai/ha,100
same,Plant response rating: Barnyardgrass,[2]; 250 g ai/ha,100
same,"Plant response rating: Sprangletop, Brdd.",[3]; 32 g ai/ha,0
same,"Plant response rating: Sprangletop, Brdd.",[3]; 64 g ai/ha,80
same,"Plant response rating: Sprangletop, Brdd.",[3]; 125 g ai/ha,85
same,"Plant response rating: Sprangletop, Brdd.",[3]; 250 g ai/ha,90
same,"Plant response rating: Watergrass, Late",[4]; 32 g ai/ha,100
same,"Plant response rating: Watergrass, Late",[4]; 64 g ai/ha,100
same,"Plant response rating: Watergrass, Late",[4]; 125 g ai/ha,100
same,"Plant response rating: Watergrass, Late",[4]; 250 g ai/ha,100
same,"Plant response rating: Flatsedge, Rice",[5]; 32 g ai/ha,0
same,"Plant response rating: Flatsedge, Rice",[5]; 64 g ai/ha,0
same,"Plant response rating: Flatsedge, Rice",[5]; 125 g ai/ha,0
same,"Plant response rating: Flatsedge, Rice",[5]; 250 g ai/ha,0
same,"Plant response rating: Sedge, Umbrella",[6]; 32 g ai/ha,0
same,"Plant response rating: Sedge, Umbrella",[6]; 64 g ai/ha,0
same,"Plant response rating: Sedge, Umbrella",[6]; 125 g ai/ha,0
same,"Plant response rating: Sedge, Umbrella",[6]; 250 g ai/ha,0
same,"Plant response rating: Rice, Transplanted",[7]; 32 g ai/ha,0
same,"Plant response rating: Rice, Transplanted",[7]; 64 g ai/ha,0
same,"Plant response rating: Rice, Transplanted",[7]; 125 g ai/ha,0
same,"Plant response rating: Rice, Transplanted",[7]; 250 g ai/ha,0
same,"Plant response rating: Rice, Water Seeded",[8]; 32 g ai/ha,0
same,"Plant response rating: Rice, Water Seed.",[8]; 64 g ai/ha,0
same,"Plant response rating: Rice, Water Seed.",[8]; 125 g ai/ha,20
same,"Plant response rating: Rice, Water Seeded",[8]; 250 g ai/ha,60
same,Plant response rating: Redstem,[9]; 32 g ai/ha,0
same,Plant response rating: Redstem,[9]; 64 g ai/ha,0
same,Plant response rating: Redstem,[9]; 125 g ai/ha,0
same,Plant response rating: Redstem,[9]; 250 g ai/ha,0
same,Plant response rating: Waterplantain,[10]; 32 g ai/ha,0
same,Plant response rating: Waterplantain,[10]; 64 g ai/ha,75
same,Plant response rating: Waterplantain,[10]; 125 g ai/ha,85
same,Plant response rating: Waterplantain,[10]; 250 g ai/ha,90
CN1CC(c2ccc(F)c(C(F)(F)F)c2)C(C(=O)Nc2ccccc2S(C)(=O)=O)C1=O (stereo not shown) [Compound 612],"Plant response rating (scale of 0 to 100), Barnyardgrass",[11]; 31 g ai/ha,0
same,"Plant response rating (scale of 0 to 100), Barnyardgrass",[11]; 62 g ai/ha,0
same,"Plant response rating (scale of 0 to 100), Barnyardgrass",[11]; 125 g ai/ha,0
same,"Plant response rating (scale of 0 to 100), Barnyardgrass",[11]; 250 g ai/ha,55
same,"Plant response rating (scale of 0 to 100), Ducksalad",[12]; 31 g ai/ha,0
same,"Plant response rating (scale of 0 to 100), Ducksalad",[12]; 62 g ai/ha,0
same,"Plant response rating (scale of 0 to 100), Ducksalad",[12]; 125 g ai/ha,0
same,"Plant response rating (scale of 0 to 100), Ducksalad",[12]; 250 g ai/ha,55
same,"Plant response rating (scale of 0 to 100), Sedge, Umbrella",[13]; 31 g ai/ha,0
same,"Plant response rating (scale of 0 to 100), Sedge, Umbrella",[13]; 62 g ai/ha,0
same,"Plant response rating (scale of 0 to 100), Sedge, Umbrella",[13]; 125 g ai/ha,0
same,"Plant response rating (scale of 0 to 100), Sedge, Umbrella",[13]; 250 g ai/ha,0
CN1C[C@H](c2ccc(C(F)(F)F)cc2)[C@@H](C(=O)Nc2cccnc2F)C1=O [Compound 1396],pest or weed control at 15.625 g/ha,"[14]; 15.625 g ai/ha, evaluated after 13 days (100=total damage to plant; 0=no damage to plant), read-out: Barnyardgrass damage rating",80%
same,pest or weed control at 62.5 g/ha,"[14]; 62.5 g ai/ha, evaluated after 13 days, read-out: Barnyardgrass damage rating (100=total damage to plant; 0=no damage to plant)",80%
same,pest or weed control at 250 g/ha,"[14]; 250 g ai/ha, evaluated after 13 days, read-out: damage to plant, Barnyardgrass (100=total damage to plant; 0=no damage to plant)",80%
